No end group written: not given here.
System: myocardial I-R injury in C57BL/6 mice
Test: Myocardial I-R in mice: cardiac fibrosis, apoptosis and remodelling after 7 days reperfusion
Assay type: in vivo, mouse
Conditions: for Effect on cardiac remodeling 7 days post I-R: 50 mg/kg i.p.
Protocol: Male C57BL/6 mice were breed and housed in the AMREP Animal Centre and maintained under a 12 h light/dark cycle. After anaesthesia (i.p., ketamine 80 mg/kg, xylazine 20 mg/kg and atropine 1.2 mg/kg), mice were randomly assigned to 24 h, 48 h and 7 days reperfusion groups and underwent reversible left arterial descending (LAD) ligation as described (Gao XM, 2011; JMCC, 50; Gao XM, 2000, JMCC). Following sedation, mice were intubated and ventilated (Harvard apparatus, MA, USA) with room air mixed with oxygen (tidal volume 0.25 mL, 150 breath/min), and placed on a heating pad. A left thoractomy will be made via the ˜third intercostal space, where the beating heart was located.
The LAD was reversibly ligated using 7-0 silk suture with a slipknot enclosing two releasing rings. Regional ischaemia was confirmed by pale colour of the ligated area. Air was then evacuated from the chest, the cavity was closed and normal respiration was restored. After 40-60 min of ischaemia, blood flow through the left coronary artery was re-established by releasing the slipknot. Sham-operated mice underwent identical surgical procedures except the coronary arteries were not ligated. Three cohorts of mice were scheduled. Cohort 1 was subjected to 40 min ischaemic-24 h reperfusion for the assessment of cardiac necrosis. Cohort 2 was subjected to 60 min occlusion with 48 h reperfusion for the quantification of cardiac and systemic inflammation. The last cohort was subjected to 7 d reperfusion and early cardiac fibrosis was assessed.
Treatment with study drugs: Animals were randomly assigned to different groups and all treatments were administrated 5 min prior to reperfusion of the LAD. The peptide Ac2-26 (1 mg kg^−1) (Chemieliva, Chongqing, China) and its vehicle (10% dimethyl sulfoxide (DMSO) in saline) were intravenously (i.v.) injected via the tail vein. […] Mice then received drug or vehicle injections daily until the experimental endpoint. The two different vehicles groups reflect different study drug solubility and administration routes.
Assessment of cardiac histology and fibrosis: LV hearts fixed in NBF after 40 min ischaema and 7 d reperfusion were embedded in paraffin by the Alfred Pathology Service (Melbourne, Australia) and sectioned at 4 μm with a Leica 2135 microtome (Leica Microsystems, Wetzlar, Germany). Sections were stained with haematoxylin and eosin (H&E) for assessment of myocardial morphology, or picrosirius red (0.1%, Fluka, Bucks, Switzerland; pH2) for cardiac collagen deposition. Images were taken at 1.25× to capture the whole LV. To examine the local infarct area, images were collected at 20× using the microscope (Olympus BX61, Olympus Inc., Ontario, Canada) and QCapture Pro software (version 5.1 for Windows, Media Cybernetic Inc., Maryland, USA). H&E images were scored blindly in random order on a scale of 1 to 5, based on intensity of blue staining of nuclei (1=least, 5=most, classified by independent observer). The area of picrosirius red staining (% LV area) was quantitatively measured using Image-Pro Plus software (Media Cybernetic Inc., Maryland, USA) for sets of LV slides from 48 h reperfusion and 7 d reperfusion study.
Animal Surgery: Adult C57BL/6 mice were randomly assigned to myocardial ischemia-reperfusion (I-R) injury or sham in vivo. Anesthetized mice (ketamine 80 mg/kg, xylazine 20 mg/kg and atropine 1.2 mg/kg, KXA, i.p.) underwent reversible left arterial descending (LAD) ligation as described (Gao et al. 2000 & Gao et al. 2011). Following sedation, mice were intubated and ventilated (Harvard apparatus, MA, USA) with room air mixed with oxygen (tidal volume 0.25 mL, 150 breaths/min), and placed on a heating pad. A left thoractomy was be made around the third intercostal space, where the beating heart was located. The LAD was reversibly ligated using 7-0 silk suture with a slipknot enclosing two releasing rings. Regional ischemia was confirmed by pale color of the ligated area. […]

| Compound | Effect on cardiac remodeling 7 days post I-R | Effect on I-R-induced cardiac fibrosis (picrosirius red) (7 days reperfusion) | Effect on LV apoptosis in the infarct area (7 days reperfusion) | Cardioprotection: Adverse remodelling (Table 9) |
| --- | --- | --- | --- | --- |
| CC(C)C1C(NC(=O)Nc2ccc(Cl)cc2)C(=O)N(c2ccccc2)N1C (stereo not shown) [BIDI-002] | lacked these cardioprotective actions | persist |  |  |
| COc1cccc(Cc2cc(C)nn(C(C)C(=O)Nc3ccc(Br)cc3)c2=O)c1 (stereo not shown) [BIDI-001, N-(4-bromophenyl)-2-[5-(3-methoxybenzyl)-3-methyl-6-oxo-6H-pyridazin-1-yl]-propionamide] | reduces cardiac remodeling | absent | significantly attenuated | ↓↓ |
| Ac2-26: Annexin-A1 N-terminal peptide, peptide ANX-A1 mimetic (Ac-AMVSEFLKQAWFIENEEQEYVQTVK; UniProt P04083 2-26, looked up, fragment) |  | tended to be inhibited |  |  |
